Like-named read-outs stand apart in the source and are kept apart here.
Key:
GLP-1R = GLP-1R (Homo sapiens, UniProt P43220); assay: GLP-1R activation: cAMP increase in CHO cells stably expressing GLP-1R; assay type: cell-based
[1] = Microsomal stability, human liver microsomes (predicted hepatic clearance); conditions: predicted from in vitro microsomal stability data
[2] = cAMP increase, CHO cells stably expressing GLP-1R, 10 point dose response, 30 minutes incubation, read-out: EC50

GLP-1R, sequence (P43220 24-463): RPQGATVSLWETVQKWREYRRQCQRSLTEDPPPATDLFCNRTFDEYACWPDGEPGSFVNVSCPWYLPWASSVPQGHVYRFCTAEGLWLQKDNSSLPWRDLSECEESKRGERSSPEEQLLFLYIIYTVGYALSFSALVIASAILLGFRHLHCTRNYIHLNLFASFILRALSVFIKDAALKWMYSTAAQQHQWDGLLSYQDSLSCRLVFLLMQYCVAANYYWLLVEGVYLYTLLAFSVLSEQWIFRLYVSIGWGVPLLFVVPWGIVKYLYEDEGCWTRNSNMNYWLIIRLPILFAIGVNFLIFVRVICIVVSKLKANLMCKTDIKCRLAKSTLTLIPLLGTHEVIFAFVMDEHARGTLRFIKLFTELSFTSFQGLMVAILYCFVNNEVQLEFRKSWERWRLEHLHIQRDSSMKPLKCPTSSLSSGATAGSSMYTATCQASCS

Row | Predicted Hepatic Clearance (Pred. Cl.) [1] [mL/min/kg] | EC50 (GLP-1R; [2]) [nM] | Compound | EC50 (GLP-1R; read-out: EC50) [nM] | EC50 (GLP-1R; EC50 (nM)) [nM]
1 | 14.5 | 0.28 | COc1cc(Cl)ccc1COc1nccc(-c2ccc(Cc3nc4ccc(C(=O)O)cc4n3CC3(CC#N)CC3)cc2F)n1 [Example 93, 2-(4-(2-((4-chloro-2-methoxybenzyl)oxy)pyrimidin-4-yl)-3-fluorobenzyl)-1-((1-(cyanomethyl)cyclopropyl)methyl)-1H-benzo[d]imidazole-6-carboxylic acid] |  | 
2 | 6.7 | 0.26 | N#CCC1(Cn2c(Cc3ccc(-c4ccc(F)c(OCc5ccc(C#N)cc5F)n4)c(F)c3)nc3ccc(C(=O)O)cc32)CC1 [Example 95, 2-(4-(6-((4-cyano-2-fluorobenzyl)oxy)-5-fluoropyridin-2-yl)-3-fluorobenzyl)-1-((1-(cyanomethyl)cyclopropyl)methyl)-1H-benzo[d]imidazole-6-carboxylic] |  | 
3 | 5.17 | 4980 | COCCn1c(Cc2c(F)cc(-c3ccnnc3OCc3ccc(C#N)cc3F)cc2F)nc2ccc(C(=O)O)cc21 [Example 103, 2-[[4-[3-[(4-cyano-2-fluoro-phenyl)methoxy]pyridazin-4-yl]-2,6-difluoro-phenyl]methyl]-3-(2-methoxyethyl)benzimidazole-5-carboxylic acid] |  | 
4 | 12.7 | 21.4 | COCCn1c(Cc2cc(F)c(-c3cccc(OCc4ccc(C#N)cc4F)n3)cc2F)nc2ccc(-c3nn[nH]n3)cc21 [Example 104, 4-[[6-[2,5-difluoro-4-[[1-(2-methoxyethyl)-6-(2H-tetrazol-5-yl)benzimidazol-2-yl]methyl]phenyl]-2-pyridyl]oxymethyl]-3-fluoro-benzonitrile] |  | 
5 | <1.83 | 1.5 | N#Cc1ccc(COc2nccc(-c3cc(F)c(Cc4nc5ccc(C(=O)O)nc5n4CC4(CF)CC4)cc3F)n2)c(F)c1 [Example 106, 2-(4-(2-((4-cyano-2-fluorobenzyl)oxy)pyrimidin-4-yl)-2,5-difluorobenzyl)-3-((1-(fluoromethyl)cyclopropyl)methyl)-3H-imidazo[4,5-b]pyridine-5-carboxylic acid] |  | 
6 | 12.3 | 3.38 | COCCn1c(Cc2ccc(-c3ccnc(OCc4ccc(C#N)cc4OC)n3)c(F)c2)nc2ccc(C(=O)O)cc21 [Example 109, 2-(4-(2-((4-cyano-2-methoxybenzyl)oxy)pyrimidin-4-yl)-3-fluorobenzyl)-1-(2-methoxyethyl)-1H-benzo[d]imidazole-6-carboxylic acid] |  | 
7 | 5.92 | 932 | COCCn1c(Cc2ccc(-c3nc(OCc4ccc(C#N)cc4F)ccc3F)c(F)c2)nc2ccc(C(=O)O)cc21 [Example 114, 2-[[4-[6-[(4-cyano-2-fluoro-phenyl)methoxy]-3-fluoro-2-pyridyl]-3-fluoro-phenyl]methyl]-3-(2-methoxyethyl)benzimidazole-5-carboxylic acid] |  | 
8 | <1.83 | 0.56 | COc1cc(C#N)ccc1COc1nccc(-c2cc(F)c(Cc3nc4ccc(C(=O)O)nc4n3CC3(CF)CC3)cc2F)n1 [Example 119, 2-(4-(2-((4-cyano-2-methoxybenzyl)oxy)pyrimidin-4-yl)-2,5-difluorobenzyl)-3-((1-(fluoromethyl)cyclopropyl)methyl)-3H-imidazo[4,5-b]pyridine-5-carboxylic acid] |  | 

More lines, now with the values behind:

Row | Compound | Predicted Hepatic Clearance (Pred. Cl.) [1] [mL/min/kg] | EC50 (GLP-1R; [2]) [nM] | EC50 (GLP-1R; read-out: EC50) [nM] | EC50 (GLP-1R; EC50 (nM)) [nM]
9 | N#Cc1ccc(COc2cccc(-c3ccc(Cc4nc5ncc(C(=O)O)cc5n4CC4(CF)CC4)c(F)c3)n2)c(F)c1 [Example 92, 2-(4-(6-((4-cyano-2-fluorobenzyl)oxy)pyridin-2-yl)-2-fluorobenzyl)-1-((1-(fluoromethyl)cyclopropyl)methyl)-1H-imidazo[4,5-b]pyridine-6-carboxylic acid] | 3.17 |  | 2.64 | 
10 | N#Cc1ccc(COc2cccc(-c3ccc(Cc4nc5ncc(C(=O)O)cc5n4CC4(CF)CC4)c(F)c3)n2)c(F)c1 [Example 94, 2-(4-(6-((4-cyano-2-fluorobenzyl)oxy)pyridin-2-yl)-2-fluorobenzyl)-1-((1-(fluoromethyl)cyclopropyl)methyl)-1H-imidazo[4,5-b]pyridine-6-carboxylic acid] | <1.83 | 0.66 |  | 
11 | COCCn1c(Cc2ccc(-c3cccc(OCc4ccncc4OC)n3)c(F)c2)nc2ccc(C(=O)O)cc21 [Example 96, 2-(3-fluoro-4-(6-((3-methoxypyridin-4-yl)methoxy)pyridin-2-yl)benzyl)-1-(2-methoxyethyl)-1H-benzo[d]imidazole-6-carboxylic acid] | 17.8 | 30.9 |  | 
12 | COCCn1c(Cc2ccc(-c3cc(C(=O)O)cc(OCc4ccc(C#N)cc4F)n3)cc2F)nc2ccc(C(=O)O)cc21 [Example 97, 2-(4-(4-carboxy-6-((4-cyano-2-fluorobenzyl)oxy)pyridin-2-yl)-2-fluorobenzyl)-1-(2-methoxyethyl)-1H-benzo[d]imidazole-6-carboxylic acid] | 3.5 | 2780 |  | 
13 | COCCn1c(Cc2ccc(-c3cccc(Oc4cccc5ccccc45)n3)cc2F)nc2ccc(C(=O)O)cc21 [Example 98, 2-(2-fluoro-4-(6-(naphthalen-1-yloxy)pyridin-2-yl)benzyl)-1-(2-methoxyethyl)-1H-benzo[d]imidazole-6-carboxylic acid] | 7.33 | 913 |  | 
14 | COCCn1c(Cc2ccc(-c3cccc(OCc4ccc(C#N)cc4F)n3)c(Cl)c2)nc2ccc(C(=O)O)cc21 [Example 101, 2-(3-chloro-4-(6-((4-cyano-2-fluorobenzyl)oxy)pyridin-2-yl)benzyl)-1-(2-methoxyethyl)-1H-benzo[d]imidazole-6-carboxylic acid] | 6.7 | 25.9 |  | 
15 | COCCn1c(Cc2cnc(-c3cccc(OCc4ccc(C#N)cc4F)n3)cn2)nc2ccc(C(=O)O)cc21 [Example 102, 2-((5-(6-((4-cyano-2-fluorobenzyl)oxy)pyridin-2-yl)pyrazin-2-yl)methyl)-1-(2-methoxyethyl)-1H-benzo[d]imidazole-6-carboxylic acid] | 5.17 | 56.5 |  | 
16 | C[C@@]1(Cn2c(Cc3ccc(-c4cccc(OCc5ccc(C#N)cc5F)n4)cc3F)nc3ccc(C(=O)O)cc32)CCO1 [Example 105, (S)-2-(4-(6-((4-cyano-2-fluorobenzyl)oxy)pyridin-2-yl)-2-fluorobenzyl)-1-((2-methyloxetan-2-yl)methyl)-1H-benzo[d]imidazole-6-carboxylic acid] | 6.33 | 0.45 |  | 
17 | COCCn1c(Cc2cnn(-c3cccc(OCc4ccc(C#N)cc4F)n3)c2)nc2ccc(C(=O)O)cc21 [Example 107, 2-[[1-[6-[(4-cyano-2-fluoro-phenyl)methoxy]-2-pyridyl]pyrazol-4-yl]methyl]-3-(2-methoxyethyl)benzimidazole-5-carboxylic acid] | 13.8 | 3640 |  | 
18 | COCCn1c(Cc2ccc(-c3cccnc3OCc3ccc(C#N)cc3F)c(F)c2)nc2ccc(C(=O)O)cc21 [Example 108, 2-(4-(2-((4-cyano-2-fluorobenzyl)oxy)pyridin-3-yl)-3-fluorobenzyl)-1-(2-methoxyethyl)-1H-benzo[d]imidazole-6-carboxylic acid] | 4.33 | 388 |  | 
19 | COCCn1c(Cc2cc(F)c(-c3cccc(OCc4ccc(C#N)cc4F)n3)c(F)c2)nc2ccc(C(=O)O)cc21 [Example 110, 2-(4-(6-((4-cyano-2-fluorobenzyl)oxy)pyridin-2-yl)-3,5-difluorobenzyl)-1-(2-methoxyethyl)-1H-benzo[d]imidazole-6-carboxylic acid] | 7 |  |  | 21.8
20 | COCCn1c(Cc2ccc(-c3ccnc(OCc4ccc(C#N)cc4OC)n3)cc2F)nc2ccc(C(=O)O)cc21 [Example 112, 2-(4-(2-((4-cyano-2-methoxybenzyl)oxy)pyrimidin-4-yl)-2-fluorobenzyl)-1-(2-methoxyethyl)-1H-benzo[d]imidazole-6-carboxylic acid] | 9.17 | 3.76 |  | 
21 | COCCn1c(Cc2ccc(-c3cccc(NC(=O)c4ccc(C#N)cc4F)n3)cc2F)nc2ccc(C(=O)O)cc21 [Example 113, 2-(4-(6-(4-cyano-2-fluorobenzamido)pyridin-2-yl)-2-fluorobenzyl)-1-(2-methoxyethyl)-1H-benzo[d]imidazole-6-carboxylic acid] | 9.83 | 2150 |  | 
22 | COCCn1c(Cc2ccc(-c3nc(OCc4ccc(C#N)cc4F)ccc3Cl)cc2F)nc2ccc(C(=O)O)cc21 [Example 115, 2-[[4-[3-chloro-6-[(4-cyano-2-fluoro-phenyl)methoxy]-2-pyridyl]-2-fluoro-phenyl]methyl]-3-(2-methoxyethyl)benzimidazole-5-carboxylic acid] | 8.3 | 80.9 |  | 
23 | COCCn1c(Cc2ccc(-c3cccc(NC(=O)c4ccccc4)n3)cc2F)nc2ccc(C(=O)O)cc21 [Example 116, 2-(4-(6-benzamidopyridin-2-yl)-2-fluorobenzyl)-1-(2-methoxyethyl)-1H-benzo[d]imidazole-6-carboxylic acid] | 7.33 | 2520 |  | 
24 | CC1(Cn2c(Cc3ccc(-c4cccc(OCc5ccc(C#N)cc5F)n4)cc3C#N)nc3ccc(C(=O)O)cc32)CC1 [Example 117, 2-(2-cyano-4-(6-((4-cyano-2-fluorobenzyl)oxy)pyridin-2-yl)benzyl)-1-((1-methylcyclopropyl)methyl)-1H-benzo[d]imidazole-6-carboxylic acid] | <1.83 | 62.2 |  | 
25 | COCCn1c(Cc2c(F)cc(-c3cccnc3OCc3ccc(C#N)cc3OC)cc2F)nc2ccc(C(=O)O)cc21 [Example 118, 2-(4-(2-((4-cyano-2-methoxybenzyl)oxy)pyridin-3-yl)-2,6-difluorobenzyl)-1-(2-methoxyethyl)-1H-benzo[d]imidazole-6-carboxylic acid] | 12 | 6.01 |  | 

From US11702404B2, “GLP-1R modulating compounds” (priority 2019, dated 2023)
